Test results reported in patent US5304687A, “Morpholinyl derivatives of doxorubicin and process for their preparation” (priority 1989, dated 1994).
In brackets after ≈: the same amount, converted by molar mass. Like-named read-outs stand apart in the source and are kept apart here.

Key:
LoVo/Dx resistant cells = experiment: cells; format: cell-based; details: for IC50: read-out: IC50 (concentration inhibiting 50% of colony growth), LoVo/Dx; for R.I. = Resistance Index = (IC50 LoVo/Dx)/(IC50 LoVo): LoVo/Dx vs LoVo
Text: (§1) Colony assay test against LoVo and LoVo/Dx resistant cells
(§2) "in vitro" (treatment for 4 hrs)
(§3) ^a IC50 = concentration inhibiting 50% of colony growth
^b R.I. = Resistance Index = (IC50 LoVo/Dx)/(IC50 LoVo)

[1] = system: Doxorubicin-resistant P388 Johnson's Leukemia (P388/Dx); experiment: in vivo; details: BDF1 mice bearing P388/Dx Johnson (10^2 cell/mouse), iv on day 1, at O.D.
Procedure: (§4) The primary screening "in vivo" was carried out in BDF1 mice bearing P388 Doxorubicin-resistant Johnson's leukemia (P388/Dx) (10^2 cell/mouse). The drugs were administered iv on day 1 after tumor inoculation.
(§5) ^c O.D. = Optimal Dose: maximally tollerated dose.
(§6) ^d T/C % = Median survival time of treated mice over median survival
(§7) time of controls × 100.

in vivo [2] = details: mouse, in vivo, iv
Procedure: as §4, §5, §6, §7

LoVo = experiment: Colony assay test against LoVo cells in vitro (treatment for 4 hrs); format: cell-based; details: Homo sapiens, read-out: IC50 (concentration inhibiting 50% of colony growth), LoVo
Text: The compounds have been tested in several experimental system in order to ascertain their cytotoxicity and antitumor activity in experimental animals in comparison with parent Doxorubicin. The new anthracyclines result more cytotoxic than the parent drug on LoVo and LoVo Doxorubicin-resistant cell line (LoVo/Dx), Table 1, and are active "in vivo" against doxorubicin-resistant cell lines.
as §1, §2, §3

[3] = Effect on mammary human carcinoma (MX1), iv and oral route; format: in vivo; details: in vivo, read-out: O.D. = Optimal Dose: maximally tollerated dose
Text: as §5
(§8) Effect of A4 on mammary human carcinoma (MX1).
(§9) ^h iv q7dx3 = treatment iv every seven days for three times
(§10) ^i po q7dx3 = oral treatment every seven days for three times

[4] = system: mammary human carcinoma (MX1); experiment: as above; format: in vivo; details: at O.D.
Text: as §5, §8, §9, §10

[5] = Effect on murine mammary carcinoma, iv and oral route; format: in vivo; details: mouse, in vivo, read-out: O.D. = Optimal Dose: maximally tollerated dose
Text: as §5
(§11) Effect of A4 on murine mammary carcinoma.
(§12) ^f iv q4dx4 = treatment iv every four days for four times
(§13) ^g po q4dx4 = oral treatment every four days for four times

murine mammary carcinoma = experiment: as above; format: in vivo; details: for Tumor Inhibition %: at O.D.
Text: as §5, §11, §12, §13

[6] = system: Doxorubicin-resistant P388 Leukemia (Schabel) (P388/Dx); experiment: Effect on Doxorubicin-resistant P388 leukemia (Schabel) in vitro (treatment 1 hr); format: cell-based; details: read-out: IC50 (concentration inhibiting 50% of cellular survival), P388/Dx
Text: (§14) Effect of A4 on sensitive and Doxorubicin-resistant P388
(§15) Leukemia (Schabel) "in vitro" (treatment 1 hr).
(§16) ^c IC50 = concentration inhibiting 50% of cellular survival.

[7] = system: Doxorubicin-resistant P38B Schabel's Leukemia; experiment: in vivo; details: BDF1 mice, P388/Dx Schabel (10^2 cell/mouse), iv on day 1, at O.D.
Text: as §5, §6, §7

in vivo [8] = details: mouse, in vivo, iv; remark: listed apart in the source
Text: as §5, §6, §7

P388 Leukemia (Schabel) = experiment: Effect on sensitive P388 leukemia (Schabel) in vitro (treatment 1 hr); format: cell-based; details: Mus musculus, read-out: IC50 (concentration inhibiting 50% of cellular survival), P388
Text: as §14, §15, §16

[9] = iv q7dx3 (iv every seven days for three times)
[10] = po q7dx3 (oral every seven days for three times)
[11] = iv q4dx4 (iv every four days for four times)
[12] = po q4dx4 (oral every four days for four times)

| Compound | IC50 (LoVo/Dx resistant cells; LoVo/DX, 4 h) [µg/mL] | R.I. = Resistance Index = (IC50 LoVo/Dx)/(IC50 LoVo) (LoVo/Dx resistant cells; treatment for 4 hrs) | T/C % = median survival time of treated mice over median survival time of controls × 100 [1] [%] | MTD (in vivo [2]) [mg/kg] | IC50 (LoVo; 4 h) [µg/mL] | MTD [3, 9] [mg/kg] | Tumor Inhibition % [4, 9] [%] | Tumor Inhibition % (murine mammary carcinoma; [11]) [%] | T/C % = median survival time of treated mice over median survival time of controls × 100 [7] [%] | further results |
| --- | --- | --- | --- | --- | --- | --- | --- | --- | --- | --- |
| COc1cccc2c1C(=O)c1c(O)c3c(c(O)c1C2=O)C[C@@](O)(C(=O)CO)C[C@@H]3O[C@H]1C[C@H](N2CCO[C@@H](OC)C2)[C@H](O)[C@H](C)O1 [Compound A5, 3'-deamino-3'-(2"(R)-methoxy-4"-morpholinyl)-doxorubicin] | 0.0401 (≈ 0.0623 µM) | 6.1 | 244 | 0.13 | 0.0065 (≈ 0.0101 µM) |  |  |  |  |  |
| COc1cccc2c1C(=O)c1c(O)c3c(c(O)c1C2=O)C[C@@](O)(C(=O)CO)C[C@@H]3O[C@H]1C[C@H](N2CCO[C@H](OC)C2)[C@H](O)[C@H](C)O1 [Compound A4, 3'-deamino-3'-(2"(S)-methoxy-4"-morpholinyl)-doxorubicin] | 0.0317 (≈ 0.0493 µM) | 3.6 | 250 | 0.09 | 0.0087 (≈ 0.0135 µM) | 0.05 | 98 | 94 | 153 | MTD [3, 10]: 0.13 mg/kg; Tumor Inhibition % [4, 10]: 99%; MTD [5, 11]: 0.065 mg/kg; MTD [5, 12]: 0.1 mg/kg; Tumor Inhibition % (murine mammary carcinoma; [12]): 97%; IC50 ([6]; P388/DX, 1 h): 0.0243 µg/mL (≈ 0.0378 µM); MTD (in vivo [8]): 0.09 mg/kg; IC50 (P388 Leukemia (Schabel); P388, 1 h): 0.0076 µg/mL (≈ 0.0118 µM) |
| COc1cccc2c1C(=O)c1c(O)c3c(c(O)c1C2=O)C[C@@](O)(C(=O)CO)C[C@@H]3O[C@H]1C[C@H](N)[C@H](O)[C@H](C)O1 [Doxorubicin, doxorubicin] |  | 52.6 | 86 |  |  | 6 | 72 | 99 | 100 | IC50 (LoVo/Dx resistant cells; LoVo/Dx, in vitro, treatment for 4 hrs): 2.55 µg/mL (≈ 4.7 µM); IC50 (LoVo; in vitro, treatment for 4 hrs): 0.0488 µg/mL (≈ 0.0898 µM); O.D. = Optimal Dose: maximally tollerated dose (murine mammary carcinoma; [11]): 5.85 mg/kg; IC50 ([6]; P388/Dx (Schabel), in vitro, treatment 1 hr): 4 µg/mL (≈ 7.36 µM); IC50 (P388 Leukemia (Schabel); sensitive P388 (Schabel), in vitro, treatment 1 hr): 0.0527 µg/mL (≈ 0.097 µM) |
